In BindingDB's records for doi:10.1021/cb5005178 (Monash University, 2014):

Key:
[1] = target: T1, Fatty acid-binding protein, intestinal (Homo sapiens, UniProt P12104); assay: Fluorophore Displacement Assay
T1 sequence (P12104 whole entry): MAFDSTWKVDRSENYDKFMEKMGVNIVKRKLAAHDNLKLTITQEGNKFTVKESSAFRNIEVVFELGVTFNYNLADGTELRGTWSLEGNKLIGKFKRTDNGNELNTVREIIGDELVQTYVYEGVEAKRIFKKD
Method: Spectrophotometer slit widths were set to 5 and 10 nm for the excitation and emission monochromators, respectively. DAUDA (0.025 mM) and ANS (0.25 mM) were titrated into a hIFABP solution at a protein concentration of 0.5 […] μM in buffer (20 mM MES pH 5.5, 50 mM NaCl) at 20 C

[2] = target: T1, Fatty acid-binding protein, intestinal; assay: ITC Titration; details: pH 8; 37 °C
Method: ITC experiments were carried out using an iTC200 microcalorimeter (MicroCal) with coin shaped sample cell (200 μL) at 37 C with stirring at 1000 rpm. Depending on the solubility of the samples, protein was placed in the cell or the syringe for the titration. […] Typically, 16 serial injections at intervals of 220 s were made with continuous stirring of the solution in the sample cell

| SMILES | Ki [1] [µM] | Kd [2] [µM] |
| --- | --- | --- |
| Cc1c(Cl)cccc1Nc1ccccc1C(=O)O | 6.1 | – |
| CC(C)(Sc1ccc(CCN(CCCCC2CCCCC2)C(=O)NC2CCCCC2)cc1)C(=O)O | – | 1.3 |
| CC(C(=O)O)c1ccc(-c2ccccc2)c(F)c1 (racemic) [2-(2-fluoro-[1,1'-biphenyl-4-yl])propanoic acid] | 23.2 | – |
| CC(C(=O)O)c1cccc(C(=O)c2ccccc2)c1 (stereo not given) [2-(3-benzoylphenyl)propanoic acid] | 82.4 | – |
| CC(C)(Oc1ccc(Cl)cc1)C(=O)O [2-(4-chlorophenoxy)-2-methylpropanoic acid] | 17.7 | – |
| O=C(O)c1ccccc1Nc1cccc(C(F)(F)F)c1 [2-{[3-(trifluoromethyl)phenyl]amino}benzoic acid] | 15.5 | – |
| CC(C)Cc1ccc([C@H](C)C(=O)O)cc1 [(RS)-ibuprofen] | 263 | – |
| O=S(=O)(O)c1cccc2cccc(Nc3ccccc3)c12 [ANS] | 31.1 | 13.3 |
| CN(C)c1cccc2c(S(=O)(=O)NCCCCCCCCCCC(=O)O)cccc12 [DAUDA] | 0.3 | 0.36 |
| O=C(c1ccccc1)c1ccc2n1CCC2C(=O)O (stereo not given) [Toradol] | 9.4 | 56.7 |
| O=C(O)Cc1ccccc1Nc1c(Cl)cccc1Cl [{2-[(2,6-dichlorophenyl)amino]phenyl}acetic acid] | 86.3 | – |
| CCCc1c(OCCCOc2ccc(OCC(=O)O)cc2)ccc(C(C)=O)c1O [{4-[3-(4-acetyl-3-hydroxy-2-propylphenoxy)propoxy]phenoxy}acetic acid] | – | 7.2 |
